Source: US10791742B2, “Plant growth regulator compounds” (SYNGENTA PARTICIPATIONS AG, priority 2016, dated 2020)

What was measured:
[1] = test system: soybean plants (variety S20-G7); assay: Reduced plant water use in soybean (foliar spray, pot weighing); format: in vivo; conditions: Table A4, 125 μM foliar spray, water use vs negative control, average of 6 pots; for % WU 0 DAA (AM): 0 DAA a.m. (10:30-12:50); for % WU 0 DAA (PM): 0 DAA p.m. (14:00-19:50)
Method: (§1) Compounds were tested for their effect on reducing plant water use as follows. The compounds were applied by foliar spray to 12 day old soybean plants (variety S20-G7) grown in controlled environment plant growth chambers. All compounds were applied using an emulsifiable concentrate (EC) formulation that was diluted to the desired concentration with water containing additional surfactant (EXTRAVON 1 g/20 L). Plant water use during the day was assessed by repeated weighing of the pots in which the plants were grown before and after application of the compounds at the indicated times (expressed in days after application (DAA)). The water use data before application was used to correct any differences in water use arising due to non-treatment effects (e.g. due to differences in plant size). The untransformed water use values were subjected to an analysis of covariance, fitting the effect of treatment and using the baseline water use 1 day before application as a covariate.
Application of the chemicals (0 DAA) took place approximately between 08:00 and 09:30 a.m. Water use (WU) was measured within day time (chamber light is on 06:00 to 20:00) at these timepoints: 0 DAA a.m. (10:30-12:50), 0 DAA p.m. (14:00-19:50).

[2] = test system: corn plants (variety NK OCTET); assay: Reduced plant water use in corn (foliar spray, pot weighing); format: in vivo; conditions: for % WU 0 DAA (PM): Table A3 (comparison trial), 0 DAA p.m.
Method: as §1, with “corn” for “soybean”, “NK OCTET)” for “S20-G7)”, “concentrations” for “concentration”, “0.4% of the adjuvant rape seed methyl ester.” for “additional surfactant (EXTRAVON 1 g/20 L).”, “covariate. Application of the chemicals (0 DAA) took place approximately between 08:00 and 09:30 a.m. Water use (WU) was measured within day time (chamber light is on 06:00 to 20:00) at these timepoints: 0 DAA a.m. (10:30-12:50), 0 DAA p.m. (14:00-19:50).” for “covariate.”

[3] = corn, 500 μM foliar spray, water use vs negative control, average of 6 pots

Row | Compound | % WU 0 DAA (AM) [1] | % WU 0 DAA (PM) [1] | % WU 0 DAA (PM) [2, 3] | other results
1 | CCCN1C(=O)OC(C)c2cc(CNS(=O)(=O)c3ccccc3)cc(F)c21 (centres unmarked) [Compound 25.001, N-[(8-fluoro-4-methyl-2-oxo-1-propyl-4H-3,1-benzoxazin-6-yl)methyl]benzenesulfonamide] | −48% | −53% |  | 
2 | CCCN1C(=O)OC(C)c2cc(CNS(=O)(=O)c3ccccc3)ccc21 (centres unmarked) [Compound 14.001, N-[(4-methyl-2-oxo-1-propyl-4H-3,1-benzoxazin-6-yl)methyl]-benzenesulfonamide] | −49% | −55% |  | 
3 | CCCN1C(=O)OC(C)c2cc(CNS(=O)(=O)c3ccc(Cl)s3)ccc21 (centres unmarked) [Compound 14.048, 5-chloro-N-[(4-methyl-2-oxo-1-propyl-4H-3,1-benzoxazin-6-yl)methyl]thiophene-2-sulfonamide] | −51% | −55% |  | 
4 | CCN1C(=O)CC(C)c2cc(CNS(=O)(=O)c3ccccc3)ccc21 (centres unmarked) [A, reference compound] |  |  | −24% | 
5 | CCN1C(=O)OC(C)c2cc(CNS(=O)(=O)c3ccccc3)cc(F)c21 (centres unmarked) [Compound 20.001, N-[(1-ethyl-8-fluoro-4-methy1-2-oxo-4H-3,1-benzoxazin-6-yl)methyl]benzenesulfonamide] |  |  |  | % WU 0 DAA (AM) ([2]; Table A2 (further trial), corn, 500 μM foliar spray, water use vs negative control, 0 DAA a.m. (10:30-12:50), average of 6 pots): −37%; % WU ODAA (PM) ([2]; Table A2 (further trial), corn, 500 μM foliar spray, water use vs negative control, 0 DAA p.m. (14:00-19:50), average of 6 pots): −42%
6 | CCN1C(=O)OC(C)c2cc(CNS(=O)(=O)c3ccccc3)ccc21 (centres unmarked) [Compound 13.001, N-[(1-ethyl-4-methyl-2-oxo-4H-3,1-benzoxazin-6-yl)methyl]-benzenesulfonamide] |  |  | −40% | ABA agonist potency compared with compound A (in words) ([2]; concluded from Table A3, corn water use at 500 μM): more potent ABA agonist than dihydroquinolinone compound A
